The subject of data set [1] is Eker rats carrying Tsc2 germline mutation. Particulars: early-life exposure during development of the uterus, cited from earlier work.
The test system of data set [2] is HuLM cells. Put plainly: Cell proliferation, trypan blue exclusion assay, METTL3 inhibition. The data set is classed as cell-based, human. Particulars: 1-10 μM, 24 hours, vs DMSO vehicle, FIG. 9. The protocol:
The HuLM cell line was cultured and maintained in phenol red-free, Dulbecco's Modified Eagle Medium: Nutrient Mixture F-12. The cells were grown at 37° C. and 5% CO2 in an incubator with saturating humidity.
Cell proliferation was measured using trypan blue exclusion assay. The cells were cultured in the absence or presence of the METTL3 inhibitor STM2457 at a dose range from 1-10 μM for 24 hours. DMSO was used as a vehicle control. Cells were trypsinized, collected by centrifuge, and resuspended in serum-free medium. Equal volumes of 0.4% trypan blue and cell suspension were mixed and cells were counted using a hemacytometer. This assay was performed three times in triplicate.

Consider `CC/C(=C(/CC)c1ccc(O)cc1)c1ccc(O)cc1` [diethylstilbestrol], for which, in data set [1] (genetically predisposed animals), the “tumor multiplicity and size” value is “increases”. The tumor-suppressor-gene penetrance in data set [1] (spontaneous frequency 65%) is greater than 90%.
For STM2457, the “cell proliferation of UF cells (relative cell numbers)” value in data set [2] was “decreases the cell proliferation”.

(Values after patent US12685734B2, “N6-methyladenosine regulators in uterine fibroids” (The University of Chicago, priority 2021, dated 2026).)
